According to patent publication US9096544B2, “Therapeutic compounds” (Wayne State University, priority 2009, dated 2015):
≈ marks a conversion by molar mass, not a printed value. Read-outs that look alike come from different tables or passages of the source.

Key:
[1] = system: AML KG-1 human myeloid cell line; test: Test A: apoptosis induction in AML KG-1 cell line; type: cell-based
Source text: Inhibition of Cell Growth and Induction of Apoptosis in AML KG-1 Human Myeloid Cell Line.
Methods for measuring the inhibition of cell growth and induction of apotosis followed literature procedures (Dawson, M. I., et al., J. Med. Chem., 2007, 50, 2622-2639).

TF(v-SRC) cells = test: Test B: apoptosis of TF(v-SRC) cells (acridine orange/ethidium bromide, nuclear fragmentation); type: cell-based; conditions: FIG. 2C
Protocol: FIG. 2 illustrates apoptosis induction in FFMA-AML and TF(v-SRC) cells by 3-Cl-AHPC and compound 16. Cells were seeded at 1×10^4 cells/ml, grown for 24 h and then exposed to 1 μM compound 16 or 3-Cl-AHPC A) at various concentrations of the compound for 96 h and B) for increasing times of exposure. C) Induction of apoptosis by 3-Cl-AHPC, all-trans-retinoic acid, 9-cis-retinoic acid and TTNPB in FFMA-AML and TF(v-SRC) cells. The percentage of apoptotic cells was determined using acridine orange and ethidium bromide staining to determine nuclear fragmentation as described in the general biochemical and pharmacological materials and methods. The error bars represent the mean of three separate determinations +/− the standard deviation (SD).
FFMA-AML cells were obtained from a patient with a diagnosis of AML as indicated by the immunophenotyping described in Table 1. This patient was refractory to the chemotherapy regimens consisting of cytosine arabinoside given with daunomycin as well as high-dose cytosine arabinoside. Peripheral blood samples were obtained from the patient utilizing a Wayne State University Institutional Review Board approved protocol and the leukemic blasts were isolated utilizing Ficoll hypaque. The isolated leukemic cells (representing >99% of the cells) were subsequently cultured in RPMI 1640 supplemented with 10% heat-inactivated fetal bovine serum (FBS) and growth factors interleukin 3 (IL-3), granulocyte-colony stimulating factor (G-CSF), granulocyte/macrophage colony-stimulating factor (GM-CSF), and stem cell factor (SCF) as we have previously reported, and then the cells were maintained in 10% FBS and gentamycin (Zhang Y. et al., Blood, 2003; […]:3743-3752). The TF(v-SRC) leukemia cells have been previously described (Black J. H. et al., Leukemia. 2003; 17:155-159). TF(v-SRC) cells were grown in RPMI 1640 supplemented with 10% heat inactivated FBS.
Apoptosis of cells was determined by (1) acridine orange and ethidium bromide-staining to assess cells with nuclear fragmentation and chromatin condensation as previously described (Farhana L. et al., Cancer Res. 2006; 65:4909-4917) and (2) flow cytometry assessing Annexin V-FITC binding together with propidium iodide staining (Annexin V-FITC apoptosis Detection kit 1, BD Biosciences, San Diego, Calif.). Data acquisition was done on a FACS Calibur flow cytometer (BD) and analyzed with CellQuest software.
Cells were grown in the presence and absence of increasing concentrations of either 3-Cl-AHPC or compound 16 and for varying periods of time. There was a progressive increase in 3-Cl-AHPC- and compound 16-mediated apoptosis in both FFMA-AML and TF(v-SRC) cells with time and with increasing concentrations of the compounds. […] We therefore tested the sensitivity of FFMA-AML and TF(v-SRC) cells to apoptosis induction by tRA, 9-cis RA, and TTNPB (FIG. 2C).

[2] = Test H: aqueous solubility by UV absorbance; type: physicochemical; conditions: thermodynamic from solid, 22° C.
Protocol: Standard curves at the UV λmax (330, 350 and 345 nm for 3-Cl-AHPC, 18 and 16, respectively) were generated using 0.245, 0.163, 0.049 and 0.025 mM 3-Cl-AHPC and 0.380, 0.178, 0.053 and 0.027 mM 18 and 16, which were prepared from 1.0% (wt/vol) solutions of compounds in Me2SO. […] Measurements for maximum solubilities in distilled water (pH 5) and phosphate-buffered saline (PBS, pH 7.2) at 22° C. were made by UV absorbance using solutions obtained after saturation at higher temperatures, overnight incubation at 22° C., and centrifugation to remove undissolved material.

[3] = system: acute promyelocytic leukemia (APL); conditions: pharmacologic concentrations; cited from earlier work

Row | SMILES | Apoptosis Induction (% control) 1.0 μM ([1]; treatment time 48 h) | Apoptosis Induction (% control) 5.0 μM ([1]; treatment time 48 h) | other results
1 | O=C(O)/C=C/c1ccc(-c2ccc(O)c(C34CC5CC(CC(C5)C3)C4)c2)c(Cl)c1 | 30 % control | 55 % control | –
2 | O=C(O)/C=C/c1ccc(-c2ccc(O)c(C34CC5CC(CC(C5)C3)C4)c2)nc1 | 48 % control | 59 % control | –
3 | CC(=O)Oc1ccc(-c2ccc(/C=C/C(=O)O)cn2)cc1C12CC3CC(CC(C3)C1)C2 | 0 % control | 0 % control | –
4 | O=C(O)/C=C/c1ccc(-c2ccc(O)c(C34CC5CC(CC(C5)C3)C4)c2)nn1 | 52 % control | 67 % control | –
5 | O=C(O)/C=C/c1cnc(-c2ccc(O)c(C34CC5CC(CC(C5)C3)C4)c2)c(Cl)c1 | 55 % control | 65 % control | –
6 | O=C(O)/C=C/c1ccc(-c2ccc(O)c(C34CC5CC(CC(C5)C3)C4)c2)cn1 | 36 % control | 52 % control | –
7 | CC1=C(/C=C/C(C)=C\C=C\C(C)=C\C(=O)O)C(C)(C)CCC1 [Compound 9-cis-RA, 9-cis-retinoic acid] | – | – | induction of apoptosis (TF(v-SRC) cells): no real increase in apoptosis
8 | O=C(O)CNc1cnc(-c2ccc(O)c(C34CC5CC(CC(C5)C3)C4)c2)nc1 [Compound 17, 2-[3-(1-Adamantyl)-4-hydroxyphenyl]-5-(carboxymethylamino)pyrimidine] | – | – | melting point: 235 °C (dec.)
9 | CCOC(=O)/C=C/c1ccc(-c2ccc(O)c(C34CC5CC(CC(C5)C3)C4)c2)nc1 [Compound 18, Ethyl(E)-3-{6-[3′-(1-adamantyl)-4′-hydroxyphenyl]-3-pyridinyl}-2-propenoate] | – | – | solubility ([2]; phosphate-buffered saline, aqueous buffer, PBS pH 7.2, read-out: Solubility (μM) at 22° C. PBS (pH 7.2)): 14 µM (≈ 5.65 µg/mL); solubility ([2]; distilled water pH 5, read-out: Solubility (μM) at 22° C. Distilled water (pH 5)): 7 µM (≈ 2.82 µg/mL); melting point: 215 to 217 °C
10 | O=C(O)/C=C/c1cnc(-c2ccc(O)c(C34CC5CC(CC(C5)C3)C4)c2)cn1 [Compound 23, (E)-3-{2-[3-(1-Adamantyl)-4-hydroxyphenyl]-5-pyrazinyl}-2-propenoic Acid] | – | – | melting point: 296 °C (dec.)
11 | C/C(=C\c1ccc(C(=O)O)cc1)c1ccc2c(c1)C(C)(C)CCC2(C)C [TTNPB] | – | – | induction of apoptosis (TF(v-SRC) cells): no real increase in apoptosis
12 | O=C(O)/C=C/c1cnc(-c2ccc(O)c(C34CC5CC(CC(C5)C3)C4)c2)nc1 [drawing 23] | 40 % control | 50 % control | –
13 | O=C(O)CNc1cnc(-c2ccc(O)c(C34CC5CC(CC(C5)C3)C4)c2)nc1 [drawing 24] | 0 % control | 0 % control | –
14 | CCOC(=O)/C=C/c1ccc(-c2ccc(O)c(C34CC5CC(CC(C5)C3)C4)c2)nc1 [drawing 25] | 55 % control | – | Apoptosis Induction (% control) 1.0 μM ([1]; treatment time 24 h): 60 % control; Apoptosis Induction (% control) 5.0 μM ([1]; treatment time 24 h): 68 nd % control
15 | O=C(O)/C=C/c1cnc(-c2ccc(O)c(C34CC5CC(CC(C5)C3)C4)c2)cn1 [drawing 30] | 39 % control | 50 % control | –
16 | CC1=C(/C=C/C(C)=C/C=C/C(C)=C/C(=O)O)C(C)(C)CCC1 [tRA, all-trans-retinoic acid] | – | – | induction of apoptosis (TF(v-SRC) cells): no real increase in apoptosis; patients achieving a complete remission [3]: 90%
